From US3948925A, “Novel thiazole derivatives” (priority 1973, dated 1976)
Like-named read-outs stand apart in the source and are kept apart here.

Legend:
Format in all cases: in vivo
[1] = tested on: Blatella germanica; assay: Insecticidal activity against Blatella germanica, topical application to ventral thorax; settings: for insecticidal activity: in vivo
Method: 1 μl of an acetone solution of the test product was applied to the ventral thorax of the insects with 20 insects per dose and concentrations of 2500, 1250, 625 and 312,5 mg/liter. The number of living and dead insects 24 and 48 hours and 6 days after the treatment was determined and the results were reported in Table VI.

[2] = tested on: Panagrellus silusae; assay: Nematocidal activity against Panagrellus silusae in aqueous suspension; settings: for mortality at 100 µg/mL / mortality at 1000 µg/mL: Panagrellus, 24 hours; for mortality at 100 µg/mL: 0.1 g/l; for mortality at 1000 µg/mL: 1 g/l; for nematocidal activity: in vivo
Method: (§1) About 2000 nematodes suspended in 0.5 ml of water were placed in a container of about 50 ml and 10 ml of an aqueous suspension of the test compound at a concentration of 1 or 0.1 g/liter were added thereto using 3 tests for each concentration. After homogenization of the aqueous media for 24 hours, a 1 ml sample was taken and the living and dead nematodes were counted with a Peter sheet.

[3] = tested on: Ditylenchus myceliophagus; assay: Nematocidal activity against Ditylenchus myceliophagus in aqueous suspension; settings: for mortality at 100 µg/mL / mortality at 1000 µg/mL: Ditylenchus myceliophagus, 24 hours; for mortality at 100 µg/mL: 0.1 g/l; for mortality at 1000 µg/mL: 1.0 g/l; for nematocidal activity: in vivo
Method: as §1

[4] = tested on: Tetranychus urticae; assay: Acaricidal activity, adulticide test on infested bean leaves; settings: read-out: % Mortality (adults); for mortality at 10 µg/mL: 10 mg/liter
Method: Bean leaves infested with 25 acarids per leaf and coated with glue about their edge were divided into 2 groups. The first group was sprayed with 2.5 ml of an aqueous solution of the test compound A for each leaf at concentrations of 50, 10 and 1 mg/liter. The second control group was untreated and the number of acarids living 48 hours after the spraying was determined to determine the percent of mortality.

[5] = tested on: Mamestra brassicae caterpillars; assay: Insecticidal activity against Mamestra brassicae caterpillars, topical application; settings: 10 μg per caterpillar; for mortality at 0.01 mg: Mamestra brassicae, topical, read-out: percent of mortality
Method: (§2) This test was effected on Mamestra brassicae caterpillars in the last larvae stage with a body of 1.5 to 2.0 cm. 1 μl of an acetone solution of the test compound was applied topically to the dorsal thorax of each caterpillar using 10 caterpillars for each dose studied and the caterpillars were kept at 25°C.

[6] = tested on: Mamestra oleracea caterpillars; assay: Insecticidal activity against Mamestra oleracea caterpillars, topical application; settings: for mortality at 0.001 mg / mortality at 0.01 mg: Mamestra, topical; for mortality at 0.001 mg: 1 μg; for mortality at 0.01 mg: 10 μg
[7] = tested on: Spodoptera exigua caterpillars; assay: Insecticidal activity against Spodoptera exigua caterpillars, topical application; settings: for mortality at 0.001 mg / mortality at 0.01 mg: Spodoptera exigua, topical; for mortality at 0.001 mg: 1 μg; for mortality at 0.01 mg: 10 μg
Method: as §2
(§3) The procedure of Test A was repeated with Spodoptera expigua and Chilo suppressalis caterpillars with compound A and the results are reported in Table II.

[8] = tested on: Chilo suppressalis caterpillars; assay: Insecticidal activity against Chilo suppressalis caterpillars, topical application; settings: for mortality at 0.001 mg / mortality at 0.01 mg: Chilo suppressalis, topical; for mortality at 0.001 mg: 1 μg; for mortality at 0.01 mg: 10 μg
Method: as §2, §3

[9] = tested on: Sitophilus granarius; assay: Insecticidal activity against Sitophilus granarius, topical application to ventral thorax; settings: 20°C; for mortality at 0.1 mg: dose 100 (μg); for mortality at 1 mg: dose 1000 (μg)
Method: 0.2 μl of an acetone solution of the test product was applied to the ventral thorax of each insect at concentrations of 5000 and 500 ppm with 50 insects for each test. The insects were held at 20°C and the percent of mortality was determined 24 and 48 hours and 6 days after the treatment.

[10] = tested on: Drosophila melanogaster; assay: Insecticidal activity against Drosophila melanogaster, dried film in crystallizer (contact and vapor); settings: for Emax at 50 µg/mL / Emax at 500 µg/mL / Emax at 5000 µg/mL: Drosophila melanogaster, read-out: % Efficacy; for Emax at 50 µg/mL: 50 mg/liter; for Emax at 500 µg/mL: 500 mg/liter; for Emax at 5000 µg/mL: 5000 mg/liter
Method: 2 ml of an acetone solution of the test product at concentrations of 5000, 500 and 50 ppm were placed in the bottom of a crystallizer and were then allowed to dry for 1 hour under a laboratory atmosphere. Three tests were run for each concentration and 25 to 50 drosophiles were placed in the crystallizer together with a carrot ring which acted as nutrient for the insects. The crystallizers were closed with a Petri dish cover and they were stored at 20°C. The number of living and dead insects was determined after 1,2,4 and 24 hours and the results for compound A are reported in Table IV.

[11] = tested on: Ceratitis capitata; assay: Insecticidal activity against Ceratitis capitata flies, topical application; settings: for mortality at 100 µg/mL / mortality at 1000 µg/mL: Ceratitis capitata; for mortality at 100 µg/mL: topical; for mortality at 1000 µg/mL: 1000 mg per liter, 1 μl topical
Method: This test was effected topically with acetone solutions of 1000 or 100 mg of compound A per liter and 1 μl of the solution was applied to the dorsal thorax of Ceratitis capitata flies aged 25 days (± 0.5) using 50 insects for each concentration. The number of flies still living and dead was determined after 2 and 24 hours to determine the percent of mortality.

[12] = tested on: Tetranychus urticae eggs; assay: Acaricidal activity, ovicide test on egg-infested bean leaves; settings: 216 h, 9 days after treatment
Method: (§4) Bean leaves infested with 10 Tetranychus urticae females per leaf and coated with glue about their periphery were used in this test and the females were left to lay eggs for 24 hours and were then removed from the leaves which were egg infested and divided into 2 groups. The first group was sprayed with 0.5 ml of an aqueous solution of compound A for each leaf at concentrations of 50 or 10 mg per liter and the second group was untreated to act as controls. The number of living eggs 9 days after the treatment was determined and the percent of egg mortality was determined and reported in Table IX.

[13] = tested on: Tetranychus urticae larvae; assay: Acaricidal activity, larvicide test on bean leaves; settings: 216 h, 9 days after treatment
Method: as §4
This test was similar to the ovicide test but the readings were effected 9 days after the treatment to allow time for the insects to evolve.

## CCOC(=O)Cc1csc(OP(=S)(OCC)OCC)n1 [Compound B, 4-ethoxycarbonylmethyl-2-(diethoxythiophosphoryloxy)-thiazole]
[1]; 625 mg/liter, 24 hr
  % mortality: 100%
[1]; 625 mg/liter, 48 hr
  % mortality: 100%
[1]; 625 mg/liter, 6 days
  % mortality: 100%
[1]; 1250 mg/liter, 24 hr
  % mortality: 100%
[1]; 1250 mg/liter, 48 hr
  % mortality: 100%
[1]; 1250 mg/liter, 6 days
  % mortality: 100%
[1]; 312,5 mg/liter, 24 hr
  % mortality: 90%
[1]; 312,5 mg/liter, 48 hr
  % mortality: 90%
[1]; 312,5 mg/liter, 6 days
  % mortality: 90%
[1]
  insecticidal activity: good insecticidal activity
[2]
  mortality at 100 µg/mL: 100%
  mortality at 1000 µg/mL: 100%
  nematocidal activity: good nematocidal activity
[3]
  mortality at 100 µg/mL: 55.7%
  mortality at 1000 µg/mL: 100%
  nematocidal activity: good nematocidal activity
[4]; 1 mg/liter, 48 hours
  mortality at 1 µg/mL: 20%
[4]; 48 hours
  mortality at 10 µg/mL: 96%
[4]; 48 h
  mortality at 50 µg/mL: 100%

## CCOC(=O)c1csc(OP(=S)(OCC)OCC)n1 [Compound A, 4-ethoxycarbonyl-2-(diethoxythiophosphoryloxy)-thiazole]
[5]
  insecticidal activity: good insecticidal activity
[5]; 24 h
  mortality at 0.01 mg: 100%
[5]; 48 h
  mortality at 0.01 mg: 100%
[6]; 24 hr
  mortality at 0.001 mg: 40%
  mortality at 0.01 mg: 100%
[6]; 48 hr
  mortality at 0.001 mg: 50%
  mortality at 0.01 mg: 100%
[6]; in vivo
  insecticidal activity: good insecticidal activity
[7]; 24 hr
  mortality at 0.001 mg: 90%
  mortality at 0.01 mg: 100%
[7]; 48 hr
  mortality at 0.001 mg: 90%
  mortality at 0.01 mg: 100%
[7]; in vivo
  insecticidal activity: good insecticidal activity
[8]; 24 hr
  mortality at 0.001 mg: 100%
  mortality at 0.01 mg: 100%
[8]; 48 hr
  mortality at 0.001 mg: 100%
  mortality at 0.01 mg: 100%
[8]; in vivo
  insecticidal activity: good insecticidal activity
[9]; 144 h, 6 days
  mortality at 0.1 mg: 10%
  mortality at 1 mg: 100%
[9]; 24 hr
  mortality at 0.1 mg: 6%
  mortality at 1 mg: 100%
[9]; 48 hr
  mortality at 0.1 mg: 6%
  mortality at 1 mg: 100%
[10]; 1 hour
  Emax at 50 µg/mL: 0%
  Emax at 500 µg/mL: 0%
  Emax at 5000 µg/mL: 0%
[10]; 2 hours
  Emax at 50 µg/mL: 0%
  Emax at 500 µg/mL: 0%
  Emax at 5000 µg/mL: 0%
[10]; 4 hours
  Emax at 50 µg/mL: 0%
  Emax at 500 µg/mL: 0%
  Emax at 5000 µg/mL: 5.9%
[10]; 24 hours
  Emax at 50 µg/mL: 32.8%
  Emax at 500 µg/mL: 100%
  Emax at 5000 µg/mL: 100%
[10]; in vivo
  contact and vapor insecticidal activity: good contact and vapor insecticidal activity
[11]; 2 h
  mortality at 100 µg/mL: 61.2%
[11]; 24 h
  mortality at 100 µg/mL: 38.8%
[11]; 2 hours
  mortality at 1000 µg/mL: 91.7%
[11]; 24 hours
  mortality at 1000 µg/mL: 97.9%
[11]; in vivo
  insecticidal activity: good insecticidal activity
[1]; 625 mg/liter, 24 hr
  % mortality: 10.0%
[1]; 625 mg/liter, 48 hr
  % mortality: 10.0%
[1]; 625 mg/liter, 6 days
  % mortality: 15.0%
[1]; 1250 mg/liter, 24 hr
  % mortality: 90.0%
[1]; 1250 mg/liter, 48 hr
  % mortality: 95.0%
[1]; 1250 mg/liter, 6 days
  % mortality: 100%
[1]; 2500 mg/liter, 24 hr
  % mortality: 95.0%
[1]; 2500 mg/liter, 48 hr
  % mortality: 95.0%
[1]; 2500 mg/liter, 6 days
  % mortality: 100%
[1]
  insecticidal activity: good insecticidal activity
[2]
  mortality at 100 µg/mL: 86.5%
  mortality at 1000 µg/mL: 100%
  nematocidal activity: good nematocidal activity
[3]
  mortality at 100 µg/mL: 88.4%
  mortality at 1000 µg/mL: 100%
  nematocidal activity: good nematocidal activity
[12]; 10 mg/liter
  mortality at 10 µg/mL: 93.3%
[12]; 50 mg/liter
  mortality at 50 µg/mL: 100%
[4]; 48 hours
  mortality at 10 µg/mL: 100%
[4]; 50 mg/liter, 48 hours
  mortality at 50 µg/mL: 100%
[13]; 10 mg/liter
  mortality at 10 µg/mL: 100%
[13]; 50 mg/liter
  mortality at 50 µg/mL: 100%
